# Reference: US9833497B2, “Human originated EGF domain proteins and use of the same” (CHENGDU SOURCEBIO LIMITED-LIABILITY COMPANY, priority 2013, dated 2017)
# How the values were obtained:
# Assay type in all cases: cell-based
# E. coli DH5α = experiment: Antibacterial activity: MIC and growth curve against E. coli DH5α in 96-well plate; conditions: minimal inhibitory concentration against E. coli DH5α; 96-well plate, 5×10^5 CFU/mL, 37° C., judged after 8 h
# How it was run: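 MIC taken as lowest protein level with no bacterial growth, tracked by A600 every 30 min during 37 °C, 175 rpm culture. Two-fold protein series 50-12.5 μg/mL final, triplicate wells, against 5×10^5 CFU/mL of LB-washed mid-log cells.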
# E. coli BL21 = experiment: MIC against Gram-negative bacteria: E. coli BL21; conditions: 5×10^5 CFU/mL
# How it was run: (§1)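 LB broth cultures at McFarland 0.5, spun down, resuspended, diluted to 5×10^5 CFU/mL final. Two-fold serial dilutions of purified human EGF domain proteins, triplicate. 37° C, 175 rpm shaking. Endpoint: no visible growth.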
# Pseudomonas aeruginosa = experiment: MIC against Gram-negative bacteria: Pseudomonas aeruginosa; conditions: 5×10^5 CFU/mL
# How it was run: as §1
# Klebsiella pneumonia = experiment: MIC against Gram-negative bacteria: Klebsiella pneumonia; conditions: 5×10^5 CFU/mL
# How it was run: as §1
# Enterobacter cloacae = experiment: MIC against Gram-negative bacteria: Enterobacter cloacae; conditions: 5×10^5 CFU/mL
# How it was run: as §1
# Aeromonas hydrophila = experiment: MIC against Gram-negative bacteria: Aeromonas hydrophila; conditions: 5×10^5 CFU/mL
# How it was run: as §1
# Citrobacter diversus = experiment: MIC against Gram-negative bacteria: Citrobacter diversus; conditions: 5×10^5 CFU/mL
# How it was run: as §1
# Moraxella catarrhalis = experiment: MIC against Gram-negative bacteria: Moraxella catarrhalis; conditions: 5×10^5 CFU/mL
# How it was run: as §1
# Proteus mirabilis = experiment: MIC against Gram-negative bacteria: Proteus mirabilis; conditions: 5×10^5 CFU/mL
# How it was run: as §1
# Proteus vulgaris = experiment: MIC against Gram-negative bacteria: Proteus vulgaris; conditions: 5×10^5 CFU/mL
# How it was run: as §1
# Serratia marcescens = experiment: MIC against Gram-negative bacteria: Serratia marcescens; conditions: 5×10^5 CFU/mL
# How it was run: as §1
# [1] = E. coli BL21, 96-well plate, 37° C., 10 h
# [2] = Pseudomonas aeruginosa, 96-well plate, 37° C., 10 h
# [3] = Klebsiella pneumonia, 96-well plate, 37° C., 10 h
# [4] = Enterobacter cloacae, 96-well plate, 37° C., 10 h
# [5] = Aeromonas hydrophila, 96-well plate, 37° C., 10 h
# [6] = Citrobacter diversus, 96-well plate, 37° C., 10 h
# [7] = Moraxella catarrhalis, 96-well plate, 37° C., 10 h
# [8] = Proteus mirabilis, 96-well plate, 37° C., 10 h
# [9] = Proteus vulgaris, 96-well plate, 37° C., 10 h
# [10] = Serratia marcescens, 96-well plate, 37° C., 10 h
# [11] = 10 h cultivation at 37° C., two-fold serial dilution
substance,measurement,setting,value
PRT1285 (NQDDCRDHRCQNGAQCMDEVNSYSCLCAEGYSGQLCE; listed as Homo sapiens),MIC,E. coli DH5α,12.5 µg/mL
same,MIC against E. coli BL21,E. coli BL21; [1],12.5 µg/mL
same,MIC against P. aeruginosa,Pseudomonas aeruginosa; [2],12.5 µg/mL
same,MIC against K. pneumonia,Klebsiella pneumonia; [3],100 µg/mL
same,MIC against E. cloacae,Enterobacter cloacae; [4],12.5 µg/mL
same,MIC against A. hydrophila,Aeromonas hydrophila; [5],25 µg/mL
same,MIC against C. diversus,Citrobacter diversus; [6],12.5 µg/mL
same,MIC against M. catarrhalis,Moraxella catarrhalis; [7],25 µg/mL
same,MIC against P. mirabilis,Proteus mirabilis; [8],50 µg/mL
same,MIC against P. vulgaris,Proteus vulgaris; [9],12.5 µg/mL
same,MIC against S. marcescens,Serratia marcescens; [10],50 µg/mL
PRT64 (PCSSSPCRGGATCALGPHGKNYTCRCPQGYQLDSSQLDCV; listed as Homo sapiens),MIC,E. coli DH5α,12.5 µg/mL
same,MIC (μg/mL) E. coli BL21,E. coli BL21; [1],12.5 µg/mL
same,MIC (μg/mL) P. aeruginosa,Pseudomonas aeruginosa; [2],50 µg/mL
same,MIC (μg/mL) K. pneumonia,Klebsiella pneumonia; [3],25 µg/mL
same,MIC (μg/mL) E. cloacae,Enterobacter cloacae; [4],12.5 µg/mL
same,MIC (μg/mL) A. hydrophila,Aeromonas hydrophila; [5],25 µg/mL
same,MIC (μg/mL) C. diversus,Citrobacter diversus; [6],50 µg/mL
same,MIC (μg/mL) M. catarrhalis,Moraxella catarrhalis; [7],25 µg/mL
same,MIC (μg/mL) P. mirabilis,Proteus mirabilis; [8],25 µg/mL
same,MIC (μg/mL) P. vulgaris,Proteus vulgaris; [9],25 µg/mL
same,MIC (μg/mL) S. marcescens,Serratia marcescens; [10],25 µg/mL
PRT1434 (DVDECKYHPCYPGVHCINLSPGFRCDACPVGFTGPMVQ; listed as Homo sapiens),MIC,E. coli DH5α,25 µg/mL
same,MIC against E. coli BL21,"E. coli BL21; E. coli BL21, 10 h cultivation at 37° C.",12.5 µg/mL
same,MIC against P. aeruginosa,"Pseudomonas aeruginosa; Pseudomonas aeruginosa, 10 h cultivation at 37° C.",25 µg/mL
same,MIC against K. pneumonia,"Klebsiella pneumonia; Klebsiella pneumonia, 10 h cultivation at 37° C.",100 µg/mL
same,MIC against E. cloacae,"Enterobacter cloacae; Enterobacter cloacae, 10 h cultivation at 37° C.",25 µg/mL
same,MIC against A. hydrophila,"Aeromonas hydrophila; Aeromonas hydrophila, 10 h cultivation at 37° C.",12.5 µg/mL
same,MIC against C. diversus,"Citrobacter diversus; Citrobacter diversus, 10 h cultivation at 37° C.",25 µg/mL
same,MIC against M. catarrhalis,"Moraxella catarrhalis; Moraxella catarrhalis, 10 h cultivation at 37° C.",12.5 µg/mL
same,MIC against P. mirabilis,"Proteus mirabilis; Proteus mirabilis, 10 h cultivation at 37° C.",25 µg/mL
same,MIC against P. vulgaris,"Proteus vulgaris; Proteus vulgaris, 10 h cultivation at 37° C.",12.5 µg/mL
same,MIC against S. marcescens,"Serratia marcescens; Serratia marcescens, 10 h cultivation at 37° C.",12.5 µg/mL
PRT1162 (DIDDCILNACEHNSTCKDLHLSYQCVCLSDWEGNFCE; listed as Homo sapiens),MIC,E. coli DH5α,12.5 µg/mL
same,MIC E. coli BL21,E. coli BL21; [11],50 µg/mL
same,MIC P. aeruginosa,Pseudomonas aeruginosa; [11],12.5 µg/mL
same,MIC K. pneumonia,Klebsiella pneumonia; [11],50 µg/mL
same,MIC E. cloacae,Enterobacter cloacae; [11],12.5 µg/mL
same,MIC A. hydrophila,Aeromonas hydrophila; [11],50 µg/mL
same,MIC C. diversus,Citrobacter diversus; [11],25 µg/mL
same,MIC M. catarrhalis,Moraxella catarrhalis; [11],12.5 µg/mL
same,MIC P. mirabilis,Proteus mirabilis; [11],25 µg/mL
same,MIC P. vulgaris,Proteus vulgaris; [11],50 µg/mL
same,MIC S. marcescens,Serratia marcescens; [11],25 µg/mL
PRT553 (CQCPGGRCDPHTGRCNCPPGLSGERCDTCSQQHQVPVPGGPVGHSIHCEV; listed as Homo sapiens),MIC,E. coli DH5α,25 µg/mL
same,MIC against E. coli BL21,"E. coli BL21; 96-well plate, 37° C., 10 h",50 µg/mL
same,MIC against P. aeruginosa,"Pseudomonas aeruginosa; 96-well plate, 37° C., 10 h",25 µg/mL
same,MIC against K. pneumonia,"Klebsiella pneumonia; 96-well plate, 37° C., 10 h",12.5 µg/mL
same,MIC against E. cloacae,"Enterobacter cloacae; 96-well plate, 37° C., 10 h",25 µg/mL
same,MIC against A. hydrophila,"Aeromonas hydrophila; 96-well plate, 37° C., 10 h",50 µg/mL
same,MIC against C. diversus,"Citrobacter diversus; 96-well plate, 37° C., 10 h",25 µg/mL
same,MIC against M. catarrhalis,"Moraxella catarrhalis; 96-well plate, 37° C., 10 h",12.5 µg/mL
same,MIC against P. mirabilis,"Proteus mirabilis; 96-well plate, 37° C., 10 h",25 µg/mL
same,MIC against P. vulgaris,"Proteus vulgaris; 96-well plate, 37° C., 10 h",50 µg/mL
same,MIC against S. marcescens,"Serratia marcescens; 96-well plate, 37° C., 10 h",25 µg/mL
PRT1331 (EIDPCADGLNGGCHEHATCKMTGPGKHKCECKSHYVGDGLNCE; listed as Homo sapiens),MIC,E. coli DH5α,25 µg/mL
same,MIC against E. coli BL21,E. coli BL21; [1],50 µg/mL
same,MIC against P. aeruginosa,Pseudomonas aeruginosa; [2],25 µg/mL
same,MIC against K. pneumonia,Klebsiella pneumonia; [3],12.5 µg/mL
same,MIC against E. cloacae,Enterobacter cloacae; [4],50 µg/mL
same,MIC against A. hydrophila,Aeromonas hydrophila; [5],12.5 µg/mL
same,MIC against C. diversus,Citrobacter diversus; [6],25 µg/mL
same,MIC against M. catarrhalis,Moraxella catarrhalis; [7],50 µg/mL
same,MIC against P. mirabilis,Proteus mirabilis; [8],25 µg/mL
same,MIC against P. vulgaris,Proteus vulgaris; [9],12.5 µg/mL
same,MIC against S. marcescens,Serratia marcescens; [10],25 µg/mL
PRT664 (DINECLTLGLCKDAECVNTRGSYLCTCRPGLMLDPSRSRCV; listed as Homo sapiens),MIC,E. coli DH5α,25 µg/mL
same,MIC E. coli BL21,"E. coli BL21; 96-well plate, 37° C., 10 h",50 µg/mL
same,MIC P. aeruginosa,"Pseudomonas aeruginosa; 96-well plate, 37° C., 10 h",25 µg/mL
same,MIC K. pneumonia,"Klebsiella pneumonia; 96-well plate, 37° C., 10 h",12.5 µg/mL
same,MIC E. cloacae,"Enterobacter cloacae; 96-well plate, 37° C., 10 h",25 µg/mL
same,MIC A. hydrophila,"Aeromonas hydrophila; 96-well plate, 37° C., 10 h",50 µg/mL
same,MIC C. diversus,"Citrobacter diversus; 96-well plate, 37° C., 10 h",12.5 µg/mL
same,MIC M. catarrhalis,"Moraxella catarrhalis; 96-well plate, 37° C., 10 h",25 µg/mL
same,MIC P. mirabilis,"Proteus mirabilis; 96-well plate, 37° C., 10 h",50 µg/mL
same,MIC P. vulgaris,"Proteus vulgaris; 96-well plate, 37° C., 10 h",12.5 µg/mL
same,MIC S. marcescens,"Serratia marcescens; 96-well plate, 37° C., 10 h",25 µg/mL
